Source: patent EP4389751A1, “HETEROCYCLIC COMPOUNDS AND USES THEREOF” (Kumquat Biosciences Inc., priority 2021, dated 2024)

What follows are compounds tested against T1, K-Ras G12S (Homo sapiens, UniProt P01116, G12S) (assay: HTRF assay of the K-Ras / SOS1 interaction). Details: IC50 (against K-Ras G12D) to IC50 (against K-Ras G12S).
T1 construct: made in house; host or cells: E. coli (e.g., BL21 (DE3))
T1 sequence (P01116 1-188 isoform P01116-2 G12S): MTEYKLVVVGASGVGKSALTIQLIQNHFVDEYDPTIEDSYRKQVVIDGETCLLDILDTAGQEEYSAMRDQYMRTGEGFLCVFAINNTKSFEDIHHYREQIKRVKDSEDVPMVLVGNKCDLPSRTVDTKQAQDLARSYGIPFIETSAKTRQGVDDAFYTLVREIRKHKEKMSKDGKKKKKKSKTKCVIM
Assay type: biochemical
Excerpt: This assay can be also used to assess a selective inhibition or reduction of signaling output of a mutant Ras protein relative to a wildtype, or relative to a different mutant Ras protein. For example, the equilibrium interaction of wildtype Kras or K-Ras mutant (e.g., wildtype or a mutant thereof including those mentioned in Example 6) with SOS1 (e.g., hSOS1) can be assessed as a proxy or an indication for a subject compound's ability to bind and inhibit Ras protein. HTRF assay detects from (i) a fluorescence resonance energy transfer (FRET) donor (e.g., antiGST-Europium) that is bound to GST-tagged K-Ras mutant to (ii) a FRET acceptor (e.g., anti-6His-XL665) bound to a His-tagged hSOS 1.
The assay buffer can contain ~5 mM HEPES pH 7.4, -150 mM NaCI, - 1 mM DTT, 0.05% BSA and 0.0025% (v/v) Igepal. A Ras working solution is prepared in an assay buffer containing typically a suitable amount of the protein construct (e.g., GST-tagged K-Ras mutant) and the FRET donor (e.g., antiGST-Eu(K) from Cisbio, France). A SOS1 working solution is prepared in an assay buffer containing suitable amount of the protein construct (e.g., His-hSOS1) and the FRET acceptor (e.g., anti-6His-XL665 from Cisbio, France). A suitable amount of the protein construct will depend on the range of activity or range of IC50 values being detected or under investigation. For detecting IC50 within a range of 500 nM, the protein constructs of the same range of molarity can be utilized.
A fixed volume of DMSO with or without test compound is transferred into a 384-well plate. Ras working solution is added to all wells of the test plate. SOS1 working solution is added to all wells except for those that are subsequently filled the inhibitor control solution. Upon incubation for about 10 minutes or longer, the fluorescence is measured with a M1000Pro plate reader (Tecan) using HTRF detection (excitation 337nm, emission 1 : 620nm, emission 2: 665nm). Compounds are tested in duplicates at different concentrations (for example, 10 µM, 2.5 µM, 0.63 µM, 0.16 µM, 0.04 µM, 0.01 µM test compound). The ratiometric data (i.e., emission 2 divided by emission 1) is used to calculate IC50 values against Ras using GraphPad Prism (GraphPad software). Following this general procedure, samples were tested with or without a subject compound disclosed herein including compounds exemplified in Table 3 to assess their abilities to inhibit K-Ras G12S relative to another mutant (e.g., K-Ras G12D). Signaling output measured in terms of IC50 values can be obtained, a ratio of IC50 against one mutant relative to another mutant can be calculated. For instance, a selective reduction of K-Ras G12S signaling output can be evidenced by a ratio greater than one. In particular, a selective reduction of K-Ras G12S signaling relative to K-Ras G12D signaling is evidenced as the ratio of IC50 (against K-Ras G12D) to IC50 (against K-Ras G12S) is greater than 1. […]
In the case of `N#Cc1ccn(C(=O)N2CCC(Nc3nc(OC[C@@]45CCCN4C[C@H](F)C5)nc4c(F)c(-c5ccc(F)c6sc(N)nc56)c(Cl)cc34)CC2)n1` [Compound A173, 1-(4-((7-(2-amino-7-fluorobenzo[d]thiazol-4-yl)-6-chloro-8-fluoro-2-(((2R,7aS)-2-fluorotetrahydro-1H-pyrrolizin-7a(5H)-yl)methoxy)quinazolin-4-yl)amino)piperidine-1-carbonyl)-1H-pyrazole-3-carbonitrile], the “Ratio of IC50 KRAS G12D vs. IC50 KRAS G12S” value (“Ratio” for short) is reported as “A (A: indicates that the ratio of IC50 against KrasG12D vs. IC50 against KrasG12S is 1-fold or greater)”.
With `Nc1nc2c(-c3c(Cl)cc4c(N5CCC6(CCN(C(=O)n7cncn7)C6)C5)nc(OC[C@@]56CCCN5C[C@H](F)C6)nc4c3F)ccc(F)c2s1` (stereo partly drawn) [Compound A175, (7-(7-(2-amino-7-fluorobenzo[d]thiazol-4-yl)-6-chloro-8-fluoro-2-(((2R,7aS)-2-fluorotetrahydro-1H-pyrrolizin-7a(5H)-yl)methoxy)quinazolin-4-yl)-2,7-diazaspiro[4.4]nonan-2-yl)(1H-1,2,4-triazol-1-yl)methanone] the “Ratio” value was “A (A: indicates that the ratio of IC50 against KrasG12D vs. IC50 against KrasG12S is 1-fold or greater)”.
With `Nc1nc2c(-c3c(Cl)cc4c(N5CC6CCC5CN6C(=O)n5cncn5)nc(OC[C@@]56CCCN5C[C@H](F)C6)nc4c3F)ccc(F)c2s1` (stereo partly drawn) [Compound A192, (5-(7-(2-amino-7-fluorobenzo[d]thiazol-4-yl)-6-chloro-8-fluoro-2-(((2R,7aS)-2-fluorotetrahydro-1H-pyrrolizin-7a(5H)-yl)methoxy)quinazolin-4-yl)-2,5-diazabicyclo[2.2.2]octan-2-yl)(1H-1,2,4-triazol-1-yl)methanone] the “Ratio” value was “A (A: indicates that the ratio of IC50 against KrasG12D vs. IC50 against KrasG12S is 1-fold or greater)”.
With `Nc1nc2c(-c3c(Cl)cc4c(N5C[C@H]6CC[C@@H](C5)N6C(=O)n5ccc(F)n5)nc(OC[C@@]56CCCN5C[C@H](F)C6)nc4c3F)ccc(F)c2s1` [Compound A214, ((1R,5S)-3-(7-(2-amino-7-fluorobenzo[d]thiazol-4-yl)-6-chloro-8-fluoro-2-(((2R,7aS)-2-fluorotetrahydro-1H-pyrrolizin-7a(5H)-yl)methoxy)quinazolin-4-yl)-3,8-diazabicyclo[3.2.1]octan-8-yl)(3-fluoro-1H-pyrazol-1-yl)methanone] the “Ratio” value was “A (A: indicates that the ratio of IC50 against KrasG12D vs. IC50 against KrasG12S is 1-fold or greater)”.
In the case of `N#Cc1c(N)sc2c(F)ccc(-c3c(Cl)cc4c(N5CCOC6(CN(C(=O)n7cncn7)C6)C5)nc(OC[C@@]56CCCN5C[C@H](F)C6)nc4c3F)c12` [Compound A232, 4-(4-(2-(1H-1,2,4-triazole-1-carbonyl)-5-oxa-2,8-diazaspiro[3.5]nonan-8-yl)-6-chloro-8-fluoro-2-(((2R,7aS)-2-fluorotetrahydro-1H-pyrrolizin-7a(5H)-yl)methoxy)quinazolin-7-yl)-2-amino-7-fluorobenzo[b]thiophene-3-carbonitrile], the “Ratio” value is reported as “A (A: indicates that the ratio of IC50 against KrasG12D vs. IC50 against KrasG12S is 1-fold or greater)”.
In the case of `C[C@H](Oc1nc(OC2CCN(C(=O)Nc3nccs3)C2)c2cc(Cl)c(-c3ccc(F)c4sc(N)c(C#N)c34)c(F)c2n1)[C@@H]1CCCN1C` (stereo partly drawn) [Compound A237, 3-((7-(2-amino-3-cyano-7-fluorobenzo[b]thiophen-4-yl)-6-chloro-8-fluoro-2-((S)-1-((S)-1-methylpyrrolidin-2-yl)ethoxy)quinazolin-4-yl)oxy)-N-(thiazol-2-yl)pyrrolidine-1-carboxamide], the “Ratio” value is reported as “A (A: indicates that the ratio of IC50 against KrasG12D vs. IC50 against KrasG12S is 1-fold or greater)”.
For `Cc1nc(C(C)C)nn1C(=O)N1CC2(CCCN(c3nc(OC[C@@]45CCCN4C[C@H](F)C5)nc4c(F)c(-c5ccc(F)c6sc(N)c(C#N)c56)c(Cl)cc34)C2)C1` [Compound A240, 2-amino-4-(6-chloro-8-fluoro-2-(((2R,7aS)-2-fluorotetrahydro-1H-pyrrolizin-7 a(5H)-yl)methoxy)-4-(2-(3-isopropyl-5-methyl-1H-1,2,4-triazole-1-carbonyl)-2,6-diazaspiro[3.5]nonan-6-yl)quinazolin-7-yl)-7-fluorobenzo[b]thiophene-3-carbonitrile], the “Ratio” value was “A (A: indicates that the ratio of IC50 against KrasG12D vs. IC50 against KrasG12S is 1-fold or greater)”.
For `CO[C@@H]1CN(C)C[C@H]1Oc1nc(N2CC3CCC(C2)N3C(=O)n2cc(C#N)cn2)c2cc(Cl)c(-c3ccc(F)c4sc(N)nc34)c(F)c2n1` [Compound A248, 1-(3-(7-(2-amino-7-fluorobenzo[d]thiazol-4-yl)-6-chloro-8-fluoro-2-(((3R,4R)-4-methoxy-1-methylpyrrolidin-3-yl)oxy)quinazolin-4-yl)-3,8-diazabicyclo[3.2.1]octane-8-carbonyl)-1H-pyrazole-4-carbonitrile], the “Ratio” value was “A (A: indicates that the ratio of IC50 against KrasG12D vs. IC50 against KrasG12S is 1-fold or greater)”.
For `Nc1nc2c(-c3c(Cl)cc4c(NC5CCN(C(=O)n6cccn6)CC5)nc(OC[C@@]56CCCN5C[C@H](F)C6)nc4c3F)ccc(F)c2s1` [Compound A254, (4-((7-(2-amino-7-fluorobenzo[d]thiazol-4-yl)-6-chloro-8-fluoro-2-(((2R,7aS)-2-fluorotetrahydro-1H-pyrrolizin-7a(5H)-yl)methoxy)quinazolin-4-yl)amino)piperidin-1-yl)(1H-pyrazol-1-yl)methanone], the “Ratio” value was “A (A: indicates that the ratio of IC50 against KrasG12D vs. IC50 against KrasG12S is 1-fold or greater)”.
For `CN1CCC[C@H]1COc1nc(N2CC3CCC(C2)N3C(=O)n2cc(C#N)cn2)c2cc(Cl)c(-c3ccc(F)c4sc(N)nc34)c(F)c2n1` [Compound A259, 1-(3-(7-(2-amino-7-fluorobenzo[d]thiazol-4-yl)-6-chloro-8-fluoro-2-(((S)-1-methylpyrrolidin-2-yl)methoxy)quinazolin-4-yl)-3,8-diazabicyclo[3.2.1]octane-8-carbonyl)-1H-pyrazole-4-carbonitrile], the “Ratio” value was “A (A: indicates that the ratio of IC50 against KrasG12D vs. IC50 against KrasG12S is 1-fold or greater)”.
`Nc1nc2c(-c3c(Cl)cc4c(NCCN5CCN(C(=O)n6cncn6)CC5=O)nc(OC[C@@]56CCCN5C[C@H](F)C6)nc4c3F)ccc(F)c2s1` [Compound A261, 1-(2-((7-(2-amino-7-fluorobenzo[d]thiazol-4-yl)-6-chloro-8-fluoro-2-(((2R,7aS)-2-fluorotetrahydro-1H-pyrrolizin-7a(5H)-yl)methoxy)quinazolin-4-yl)amino)ethyl)-4-(1H-1,2,4-triazole-1-carbonyl)piperazin-2-one] was tested, and the “Ratio” value was “A (A: indicates that the ratio of IC50 against KrasG12D vs. IC50 against KrasG12S is 1-fold or greater)”.
`Nc1nc2c(-c3c(Cl)cc4c(NC5CCN(C(=O)Nc6ncccn6)CC5)nc(OC[C@@]56CCCN5C[C@H](F)C6)nc4c3F)ccc(F)c2s1` [Compound A262, 4-((7-(2-amino-7-fluorobenzo[d]thiazol-4-yl)-6-chloro-8-fluoro-2-(((2R,7aS)-2-fluorotetrahydro-1H-pyrrolizin-7a(5H)-yl)methoxy)quinazolin-4-yl)amino)-N-(pyrimidin-2-yl)piperidine-1-carboxamide] was tested, and the “Ratio” value was “A (A: indicates that the ratio of IC50 against KrasG12D vs. IC50 against KrasG12S is 1-fold or greater)”.
In the case of `Nc1nc2c(-c3c(Cl)cc4c(N5CCN(C6CN(C(=O)n7cncn7)C6)CC5)nc(OC[C@@]56CCCN5C[C@H](F)C6)nc4c3F)ccc(F)c2s1` [Compound A267, (3-(4-(7-(2-amino-7-fluorobenzo[d]thiazol-4-yl)-6-chloro-8-fluoro-2-(((2R,7aS)-2-fluorotetrahydro-1H-pyrrolizin-7a(5H)-yl)methoxy)quinazolm-4-yl)piperazin-1-yl)azetidin-1-yl)(1H-1,2,4-triazol-1-yl)methanone], the “Ratio” value is reported as “A (A: indicates that the ratio of IC50 against KrasG12D vs. IC50 against KrasG12S is 1-fold or greater)”.
